Test results taken from patent US12012394B2, “Alpha-synuclein ligands” (Washington University, priority 2018, dated 2024).

Key:
[1] = target: Banner PD-seeded α-synuclein fibrils (Homo sapiens (Human), UniProt P37840); test: Homologous competition radioligand binding assay, PD-seeded fibrils; conditions: 150 nM Banner PD seeded fibrils
Protocol: The equilibrium dissociation constant (Kd) for a series of compounds was determined using direct radioactive competitive binding assays (homologous or heterologous) with either recombinant α-synuclein fibrils or brain tissue homogenates from AD cases.
Recombinant protein was produced in E. coli using protocols based on previously described methods for α-synuclein [Giasson, B. I., et al., “Mutant and wild type human alpha-synucleins assemble into elongated filaments with distinct morphologies in vitro,” 1999, J Biol. Chem., 274:7619-7622; Huang, C., et al., “A new method for purification of recombinant human alpha-synuclein in Escherichia coli,” 2005, Protein Expr Purif, 42:173-177; Yu, L., et al, “Synthesis and in vitro evaluation of á-synuclein ligands,” 2012, Bioorg. Med. Chem., 20:4625-4634] and tau [Li, W., et al., “Characterization of two VQIXXK motifs for tau fibrillization in vitro,” 2006, Biochemistry, 45:15692-15701]. BL21(DE3)RIL E. coli were transformed with a pRK172 bacterial expression plasmid containing the human α-synuclein coding sequence. […]. Overnight cultures were centrifuged at 3,900×g for 10 min at 25° C. and the bacterial pellets were resuspended by gentle vortexing in 20 ml osmotic shock buffer (30 mM Tris-HCl, 2 mM EDTA, 40% Sucrose, pH 7.2) and then incubated at room temperature for 10 min. The cell suspension was then centrifuged at 8,000×g for 10 min at 25° C. and the pellet was resuspended in 22.5 ml cold H2O before adding 9.4 μl 2 M MgCl2 to each tube. The suspension was incubated on ice for 3 min prior to centrifugation at 20,000×g for 15 min at 4° C. After the supernatant was transferred to a fresh tube, streptomycin was added to a final concentration of 10 mg/ml and centrifuged at 20,000×g for 15 min at 4° C. The supernatant from this step was collected and dithiothreitol (DTT) and Tris-HCl pH 8.0 were added to final concentrations of 1 mM and 20 mM respectively, before boiling for 10 min to precipitate heat-sensitive proteins, which were pelleted at 20,000×g for 15 min at 4° C. The supernatant was collected and filtered through a 0.45 μm surfactant-free cellulose acetate filter (Corning) before loading onto a 1 ml DEAE Sepharose column equilibrated in 20 mM Tris-HCl pH 8.0, 1 mM EDTA, and 1 mM DTT. The DEAE column was washed with 20 mM Tris-HCl pH 8.0, 1 mM EDTA, 1 mM DTT before eluting α-synuclein protein in 20 mM Tris-HCl pH 8.0 buffer with 1 mM EDTA, 1 mM DTT and 0.3 M NaCl. Purified α-synuclein protein was dialyzed overnight in 10 mM Tris-HCl pH 7.6, 50 mM NaCl, 1 mM DTT.
Purified recombinant α-synuclein monomer (2 mg/ml) was incubated in 20 mM Tris-HCl, pH 8.0, 100 mM NaCl for 72 h at 37 C with shaking at 1000 rpm in an Eppendorf Thermomixer. […] The concentration of α-synuclein monomer in the supernatant was determined in a BCA protein assay according to the manufacturer's instructions, using a bovine serum albumin (BSA) standard curve. The measured decrease in α-synuclein monomer concentration was used to determine the concentration of fibrils in the 72 h fibril reaction mixture. […]
These direct binding assays used a fixed concentration of either fibrils or PD/AD tissue and the radioligand (e.g., [^18F]28) and varying concentration ranges of corresponding homologous non-radiolabeled standard reference compound. […] Reactions were incubated at 37° C. for 1 h before quantifying bound radioligand. […]

[2] = target: PD-seeded fibrils (Homo sapiens (Human), UniProt P37840); test: Heterologous competition binding assay with [18F]TZ61-44 as radioligand; conditions: radioligand [18F]TZ61-44, 25 nM PD-seeded fibrils
Protocol: The equilibrium inhibitor constant (Ki) of a series of compounds was measured using heterologous radioactive binding assays with [^18F]TZ61-44, […], or [^125I]TZ61-84 as the screening radioligands. EC50 values for each compound were determined by fitting the data to the equation Y=Bottom+(Top−Bottom)/(1+(X−Log EC50)^−Hillcoefficient) using nonlinear regression by Kaleidagraph software, where Top and Bottom are the Y values for the top and bottom plateaus of the binding curve. The Ki values were derived from the EC50 values using the Cheng-Prusoff equation: Ki=EC50/(1+[radioligand]/Kd). FIGS. 5A-5E show the inhibition curves for TG-1-90B, TZ55-101, TZ61-84, TZ55-107, and TZ55-81 using [^18F]TZ61-44 as the radioligand. FIG. 11B-C show the inhibition curves for two separate experiments on PD fibrils for TZ55-101 using […] as the radioligand. FIGS. 12A-12F show the inhibition curves for TZ66-3, TZ64-015, TZ64-016, TZ64-018, TZ64-019, and TZ64-020 using [^18F]TZ61-44 as the radioligand. FIGS. 13A-13D show the inhibition curves for TZ66-9, TZ66-8, and TZ55-107 using [^18F]TZ61-44 as the radioligand.

Kd [1]: 29 nM | EC50 [2]: 46 nM | Ki ([2]; Cheng-Prusoff from EC50): 43 nM
Structure (SMILES): COc1ccc2nc(-c3csc(C=O)c3)ccc2c1 [TZ55-81]
